By IC50 is commonly meant the concentration that inhibits the measured activity by half. One may read the EC50 as the concentration needed to bring the measured effect to its halfway point.

Drawing on patent US20260109715A1, “IMIDAZOPYRIDINE DERIVATIVES WITH BICYCLIC STRUCTURE” (PUBLIC UNIVERSITY CORPORATION YOKOHAMA CITY UNIVERSITY, priority 2022, published 2026), this text covers IC50, EC50 and Snhg1 fold change for eleven molecules.

One experiment concerns the target human SMG1 enzyme (Homo sapiens, UniProt Q96Q15). Description: Measurement of SMG1 kinase activity (ADP-Glo Kinase Assay). It counts as biochemical. The note with it: purified human SMG1 enzyme 5 nM, Upf1 peptide substrate, ATP 4 μM; qAC50 synonymous with IC50; read-out: Test Example 1 ADP-Glo IC50. The essentials:
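ADP-Glo luminescence readout of ADP made by 5 nM human SMG1 acting on 8 μg/mL Upf1 peptide with 4 μM ATP for 60 min at room temperature, after a 15 min enzyme–compound preincubation (1% DMSO; pH 7.5 HEPES, MnCl2). Activity scaled between DMSO and no-enzyme wells; IC50 by four-parameter logistic regression.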
(In general: ADP-Glo turns the ADP formed in a reaction into a luminescent signal.)

For experiment [1], the system named is Snhg1 transcript (NMD target gene) in EMT6 murine breast cancer cell line. Description: Measurement of NMD inhibitory activity in cells (increase in Snhg1 transcript, real-time PCR). Also on record: species or system mouse. Conditions: 6 hours treatment, concentration giving 1/2 of maximum Snhg1 fold change of positive control, read-out: Test Example 2 Cell-based Snhg1 EC50. The essentials:
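EMT6 cells treated with serially diluted compound (2% DMSO final) for 6 h; Snhg1 transcript quantified by real-time PCR (ΔΔCT, Tbp endogenous control, untreated wells set to 1). EC50 taken as concentration giving half the maximum fold change of a known NMD inhibitor positive control.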
A general note: Quantitative PCR measures a nucleic acid by following its amplification.

Experiment [2] relates to Snhg1 transcript in tumor tissues of mice subcutaneously implanted with EMT6 murine breast cancer cell line. The experiment in a line: Evaluation of NMD inhibitory activity in vivo (Snhg1 transcript in EMT6 tumor tissue after oral administration). Conditions: 6 hours after administration, BALB/c mice. The essentials:
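BALB/c mice bearing subcutaneous EMT6 tumours (engraftment confirmed day 7) dosed orally; tumours excised 6 h post-dose. Snhg1 RNA quantified by qRT-PCR, ΔΔCT with Gapdh as endogenous control, expressed relative to 0.5% methylcellulose vehicle group set at 1.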

Like-named read-outs stand apart in the source and are kept apart here.

Sequence of human SMG1 enzyme (Q96Q15 whole entry): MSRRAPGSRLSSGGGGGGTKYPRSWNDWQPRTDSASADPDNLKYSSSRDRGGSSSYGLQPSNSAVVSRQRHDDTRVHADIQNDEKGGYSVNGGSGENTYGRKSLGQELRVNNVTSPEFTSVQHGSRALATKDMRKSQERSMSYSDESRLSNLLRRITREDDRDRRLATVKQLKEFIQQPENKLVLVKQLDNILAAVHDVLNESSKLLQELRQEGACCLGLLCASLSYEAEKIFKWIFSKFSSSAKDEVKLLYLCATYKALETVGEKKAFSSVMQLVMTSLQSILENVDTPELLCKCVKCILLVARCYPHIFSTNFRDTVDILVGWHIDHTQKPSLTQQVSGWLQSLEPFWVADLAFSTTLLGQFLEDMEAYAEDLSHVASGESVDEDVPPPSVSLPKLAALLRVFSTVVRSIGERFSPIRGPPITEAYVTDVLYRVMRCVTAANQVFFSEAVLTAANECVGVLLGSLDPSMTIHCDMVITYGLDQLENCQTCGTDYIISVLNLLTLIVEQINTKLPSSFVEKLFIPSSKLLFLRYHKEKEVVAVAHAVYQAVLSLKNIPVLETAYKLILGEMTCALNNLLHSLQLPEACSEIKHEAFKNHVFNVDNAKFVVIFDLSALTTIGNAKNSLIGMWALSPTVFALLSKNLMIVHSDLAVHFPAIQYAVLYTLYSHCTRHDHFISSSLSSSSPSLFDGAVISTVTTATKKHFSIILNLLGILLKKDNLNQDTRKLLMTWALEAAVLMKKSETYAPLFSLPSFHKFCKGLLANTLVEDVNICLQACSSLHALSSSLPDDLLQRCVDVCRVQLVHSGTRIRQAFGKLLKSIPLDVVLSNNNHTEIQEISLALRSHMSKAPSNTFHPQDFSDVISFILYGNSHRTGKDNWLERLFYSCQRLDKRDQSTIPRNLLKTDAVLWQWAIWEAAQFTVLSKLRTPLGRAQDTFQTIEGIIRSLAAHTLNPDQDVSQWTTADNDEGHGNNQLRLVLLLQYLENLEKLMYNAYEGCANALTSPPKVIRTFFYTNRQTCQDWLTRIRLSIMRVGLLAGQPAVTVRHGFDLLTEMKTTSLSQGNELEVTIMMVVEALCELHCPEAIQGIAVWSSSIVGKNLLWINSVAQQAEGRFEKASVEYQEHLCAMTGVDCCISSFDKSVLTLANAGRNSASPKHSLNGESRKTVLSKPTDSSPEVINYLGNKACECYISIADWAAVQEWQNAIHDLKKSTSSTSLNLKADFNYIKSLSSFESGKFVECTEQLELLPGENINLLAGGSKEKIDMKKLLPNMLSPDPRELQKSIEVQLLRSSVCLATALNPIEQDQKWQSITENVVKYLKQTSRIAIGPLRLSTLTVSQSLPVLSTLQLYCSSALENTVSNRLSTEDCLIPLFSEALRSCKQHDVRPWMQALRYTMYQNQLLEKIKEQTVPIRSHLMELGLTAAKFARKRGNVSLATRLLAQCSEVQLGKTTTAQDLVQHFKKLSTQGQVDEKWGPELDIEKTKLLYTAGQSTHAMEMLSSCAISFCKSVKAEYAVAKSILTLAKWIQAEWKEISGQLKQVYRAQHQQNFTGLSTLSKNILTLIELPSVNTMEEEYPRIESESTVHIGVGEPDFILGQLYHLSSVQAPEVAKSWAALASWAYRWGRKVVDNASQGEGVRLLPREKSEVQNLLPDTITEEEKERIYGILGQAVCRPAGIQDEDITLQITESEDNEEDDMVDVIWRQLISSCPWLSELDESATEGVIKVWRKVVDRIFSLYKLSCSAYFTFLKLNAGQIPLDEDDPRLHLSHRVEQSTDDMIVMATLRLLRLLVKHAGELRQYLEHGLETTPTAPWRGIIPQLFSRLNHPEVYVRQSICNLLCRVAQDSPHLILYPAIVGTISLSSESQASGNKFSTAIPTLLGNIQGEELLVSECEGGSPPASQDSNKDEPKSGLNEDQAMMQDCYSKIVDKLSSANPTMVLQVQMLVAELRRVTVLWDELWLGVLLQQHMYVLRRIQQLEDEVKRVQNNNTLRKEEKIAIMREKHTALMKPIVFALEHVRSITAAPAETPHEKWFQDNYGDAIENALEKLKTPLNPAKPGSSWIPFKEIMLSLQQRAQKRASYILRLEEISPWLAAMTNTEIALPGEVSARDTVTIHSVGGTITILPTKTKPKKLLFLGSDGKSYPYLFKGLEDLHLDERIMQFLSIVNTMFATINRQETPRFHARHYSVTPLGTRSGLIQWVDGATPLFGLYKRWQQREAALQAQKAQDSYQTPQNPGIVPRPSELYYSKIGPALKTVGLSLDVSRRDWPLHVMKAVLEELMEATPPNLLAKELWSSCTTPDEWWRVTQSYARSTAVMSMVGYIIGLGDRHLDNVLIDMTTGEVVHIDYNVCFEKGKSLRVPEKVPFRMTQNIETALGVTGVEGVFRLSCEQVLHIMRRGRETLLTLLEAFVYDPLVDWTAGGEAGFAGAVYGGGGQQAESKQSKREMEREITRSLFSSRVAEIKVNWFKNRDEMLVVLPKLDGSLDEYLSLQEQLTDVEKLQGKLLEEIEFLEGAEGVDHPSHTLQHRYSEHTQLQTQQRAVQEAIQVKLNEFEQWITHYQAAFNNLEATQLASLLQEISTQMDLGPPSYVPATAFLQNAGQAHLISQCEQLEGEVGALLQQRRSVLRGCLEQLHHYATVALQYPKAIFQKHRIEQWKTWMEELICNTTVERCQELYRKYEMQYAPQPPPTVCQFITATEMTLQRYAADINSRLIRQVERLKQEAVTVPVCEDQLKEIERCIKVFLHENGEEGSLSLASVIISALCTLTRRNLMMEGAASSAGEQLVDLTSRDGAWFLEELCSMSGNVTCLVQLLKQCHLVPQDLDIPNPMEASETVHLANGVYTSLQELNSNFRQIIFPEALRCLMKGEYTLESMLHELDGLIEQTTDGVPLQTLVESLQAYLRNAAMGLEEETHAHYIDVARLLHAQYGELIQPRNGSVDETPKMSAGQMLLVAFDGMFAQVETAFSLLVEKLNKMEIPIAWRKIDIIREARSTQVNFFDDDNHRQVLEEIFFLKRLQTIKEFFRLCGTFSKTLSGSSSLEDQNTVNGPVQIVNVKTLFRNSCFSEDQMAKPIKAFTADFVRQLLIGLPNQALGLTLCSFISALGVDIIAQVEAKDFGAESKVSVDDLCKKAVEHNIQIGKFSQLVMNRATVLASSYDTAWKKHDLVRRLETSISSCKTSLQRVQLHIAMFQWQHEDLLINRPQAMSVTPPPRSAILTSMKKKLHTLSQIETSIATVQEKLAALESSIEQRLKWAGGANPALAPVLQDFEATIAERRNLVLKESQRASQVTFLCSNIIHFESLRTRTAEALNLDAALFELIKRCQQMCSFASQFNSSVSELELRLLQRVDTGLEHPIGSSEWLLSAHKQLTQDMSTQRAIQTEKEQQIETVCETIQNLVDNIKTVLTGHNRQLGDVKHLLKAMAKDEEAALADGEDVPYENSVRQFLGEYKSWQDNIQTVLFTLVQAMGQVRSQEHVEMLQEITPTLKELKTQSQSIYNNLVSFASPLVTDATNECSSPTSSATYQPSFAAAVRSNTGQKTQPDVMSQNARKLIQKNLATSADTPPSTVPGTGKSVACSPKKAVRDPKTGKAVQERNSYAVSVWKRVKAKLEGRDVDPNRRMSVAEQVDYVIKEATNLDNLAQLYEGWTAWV

On to `C[C@@H](Nc1nc(Cl)cc2[nH]c(-c3cc4c(N5CCC(N(C)C)CC5)nccc4[nH]c3=O)nc12)C(F)(F)F` [Example 8, 3-(6-chloro-4-{[(2R)-1,1,1-trifluoropropan-2-yl]amino}-1H-imidazo[4,5-c]pyridin-2-yl)-5-[4-(dimethylamino)piperidin-1-yl]-1,6-naphthyridin-2(1H)-one], for which the concentration for half-maximal inhibition (IC50) on human SMG1 enzyme was determined as 1.8 nM. Also, the EC50 in experiment [1] (Mus musculus) stood at 36 nM. Besides, in experiment [2] (30 mg/kg oral), the Snhg1 fold change stood at 4.1.
`CCc1nc(Cl)cc2[nH]c(-c3cc4c(-c5cnc(C6CC6)cc5OC)nccc4[nH]c3=O)nc12.CS(=O)(=O)O` [Example 138, 3-(6-chloro-4-ethyl-1H-imidazo[4,5-c]pyridin-2-yl)-5-(6-cyclopropyl-4-methoxypyridin-3-yl)-1,6-naphthyridin-2(1H)-one methanesulfonate]: at human SMG1 enzyme, the 50% inhibitory concentration (IC50) was 0.36 nM. In experiment [1] (Mus musculus), the concentration giving a half-maximal response (EC50) was determined as 1.8 nM. In experiment [2] (10 mg/kg oral), this molecule registered a Snhg1 fold change of 12.
For the molecule `CS(=O)(=O)O.O=c1[nH]c2ccncc2cc1-c1nc2c(C3CCOCC3)nc(Cl)cc2[nH]1` [Example 126, 3-[6-chloro-4-(tetrahydro-2H-pyran-4-yl)-1H-imidazo[4,5-c]pyridin-2-yl]-1,6-naphthyridin-2(1H)-one methanesulfonate], the IC50 at human SMG1 enzyme is 1.6 nM. In experiment [1] (Mus musculus), the EC50 stood at 29 nM. In experiment [2] (30 mg/kg oral), this molecule displayed a Snhg1 fold change of 4.1.
`Cc1ccccc1-c1nccc2[nH]c(=O)c(-c3nc4cnc(Cl)cc4[nH]3)cc12` [Example 32, 3-(6-chloro-1H-imidazo[4,5-c]pyridin-2-y1)-5-(2-methylpheny1)-1,6-naphthyridin-2(1H)-one]: the IC50 at human SMG1 enzyme was found to be 2.4 nM. In experiment [1] (Mus musculus), the EC50 amounted to 77 nM. This molecule also showed a Snhg1 fold change in experiment [2] (50 mg/kg oral) of 12.
As to “3-(6-chloro-4-methyl-1H-imidazo[4,5-c]pyridin-2-yl)-5-(2-fluoro-6-methoxyphenyl)-1,6-naphthyridin-2(1H)-one methanesulfonate [Example 130]”, at human SMG1 enzyme, the IC50 came out at 1.6 nM. The concentration giving a half-maximal response (EC50) in experiment [1] worked out at 11 nM. Moreover, in experiment [2] (10 mg/kg oral), the Snhg1 fold change is listed as 9.2.
`Cc1nn(C(F)F)c(C)c1-c1nccc2[nH]c(=O)c(-c3nc4c(N5C[C@@H](O)C[C@H]5C)nc(Cl)cc4[nH]3)cc12` [Example 85, 3-{6-chloro-4-[(2R,4S)-4-hydroxy-2-methylpyrrolidin-1-yl]-1H-imidazo[4,5-c]pyridin-2-yl}-5-[1-(difluoromethyl)-3,5-dimethyl-1H-pyrazol-4-yl]-1,6-naphthyridin-2(1H)-one]: on human SMG1 enzyme, the IC50 is 0.39 nM. For the same molecule, the concentration giving a half-maximal response (EC50) in experiment [1] (Mus musculus) stood at 0.47 nM. Further, the Snhg1 fold change in experiment [2] (10 mg/kg oral) came out at 6.9.
The matching figures for `CS(=O)(=O)O.C[C@@H]1C[C@@H](F)CN1c1nc(Cl)cc2[nH]c(-c3cc4cnccc4[nH]c3=O)nc12` [Example 118, 3-{6-chloro-4-[(2R,4R)-4-fluoro-2-methylpyrrolidin-1-yl]-1H-imidazo[4,5-c]pyridin-2-yl}-1,6-naphthyridin-2(1H)-one methanesulfonate]: 1.8 nM, 34 nM and 9.1.
The matching figures for `CS(=O)(=O)O.Cc1nc(Cl)cc2[nH]c(-c3cc4c(-c5ccccc5OC(F)F)nccc4[nH]c3=O)nc12` [Example 132, 3-(6-chloro-4-methyl-1H-imidazo[4,5-c]pyridin-2-yl)-5-[2-(difluoromethoxy)phenyl]-1,6-naphthyridin-2(1H)-one methanesulfonate]: 3.5 nM, 50 nM and 7.4.
As to `CCc1cc(OC)c(-c2nccc3[nH]c(=O)c(-c4nc5c(CC)nc(Cl)cc5[nH]4)cc23)cn1.CS(=O)(=O)O` [Example 139, 3-(6-chloro-4-ethyl-1H-imidazo[4,5-c]pyridin-2-yl)-5-(6-ethyl-4-methoxypyridin-3-yl)-1,6-naphthyridin-2(1H)-one methanesulfonate], the IC50 at human SMG1 enzyme came to 0.31 nM. Also, the EC50 in experiment [1] (Mus musculus) amounted to 4.3 nM. Also, the Snhg1 fold change in experiment [2] (10 mg/kg oral) came out at 7.5.
For the molecule `CCc1nc(Cl)cc2[nH]c(N3Cc4c(ccnc4-c4cnc(C5CC5)cc4OC)NC3=O)nc12.CS(=O)(=O)O` [Example 154, 3-(6-chloro-4-ethyl-1H-imidazo[4,5-c]pyridin-2-yl)-5-(6-cyclopropyl-4-methoxypyridin-3-yl)-3,4-dihydropyrido[4,3-d]pyrimidin-2(1H)-one methanesulfonate], the IC50 on human SMG1 enzyme is 0.53 nM. The concentration for a half-maximal effect (EC50) in experiment [1] (Mus musculus) came out at 0.5 nM. For the same molecule, the Snhg1 fold change in experiment [2] (10 mg/kg oral) was determined as 10.
Turning to `CS(=O)(=O)O.[2H]C([2H])([2H])Oc1cccc(F)c1-c1nccc2[nH]c(=O)c(-c3nc4cnc(Cl)cc4[nH]3)cc12` [Example 135, 3-(6-chloro-1H-imidazo[4,5-c]pyridin-2-yl)-5-{2-fluoro-6-[(2H3)methyloxy]phenyl}-1,6-naphthyridin-2(1H)-one methanesulfonate], on human SMG1 enzyme, the half-maximal inhibitory concentration (IC50) was 2.2 nM. In addition, in experiment [1] (Mus musculus), the 50% effective concentration (EC50) was 39 nM. In addition, the Snhg1 fold change in experiment [2] (12.5 mg/kg oral) is given as 10.
